Where two headings read alike, the source gives them in different places.
Experiments:
[1] = test system: cCaSR; conditions: for EC50 Ago (M): Supplementary Table I, dash = no activity
Description: (§3) The cCaSR expression constructs were stably-transfected in the mammalian cell line, HEK293/ T-REx/ natClytin. Transfections were performed by electroporation, following standard methodologies. Stably-transfected target and mock pools were obtained after 2–3 weeks of antibiotic selection, and clones were selected for testing. In order to evaluate the activity of each clone, 10 mM Calcium was injected onto the cells and the resulting luminescence was measured.
(§4) All compounds screened on the receptor were analysed in parallel with Calcium, on the HEK293/ T-REx/ natClytin-cCaSR or hCaSR stable or transient cell lines. Prior to the measurements, the cells were incubated with 10 µM of photoprotein substrate, Coelenterazine, prepared in Calcium-free Tyrode’s buffer at 37 °C for 3–4 h. All the data was captured using a FLIPR Tetra (Molecular Devices). A single or double injection protocol was used to capture the data for potential agonists and PAMs, respectively. The compounds tested were all prepared at desired concentration in Calcium-Free Tyrode’s buffer supplemented with 0.5% DMSO. For the activity determination of potential agonists, the single injection protocol was used, with CaCl2 as the positive control for each run. Each compound was injected into specific wells and the luminescence signal was measured for 1 min. for each compound. For potential PAMs, the double injection protocol was used. The first injection was identical to the one described above for potential agonists. A 20 min. resting period followed the first injection and a second injection of 0.5 mM CaCl2 in Calcium-free Tyrode’s buffer was injected to all wells, and the resulting luminescence signal was again measured for 1 min for each compound.
(§5) Dose–response curves were established by plotting signal amplitudes versus agonist concentration. For each compound, the % of maximum response was determined using a standard formula as follows:
(§6) The half maximal effective concentrations (EC50) were identified by nonlinear regression using a variable slope model with the equation Y = Bottom + (X^Hillslope)*(Top–Bottom)/ (X^HillSlope + EC50^HillSlope), where Y is the agonist concentration, Top and Bottom are the plateaus in the same units as Y and HillSlope is the Slope factor or Hill slope. […] In these cases the EC50 was noted as being higher than the maximum concentration used in the assay.

[2] = test system: cCaSR; assay: cCaSR PAM luminescence assay, double injection with 0.5 mM CaCl2, HEK293/T-REx/natClytin-cCaSR; conditions: Supplementary Table I, PAM assay, dash = no activity
Description: as §3, §4
(§7) The half maximal effective concentrations (EC50) were identified by nonlinear regression using a variable slope model with the equation Y = Bottom + (X^Hillslope)*(Top–Bottom)/ (X^HillSlope + EC50^HillSlope), where Y is the agonist concentration, Top and Bottom are the plateaus in the same units as Y and HillSlope is the Slope factor or Hill slope. All calculations and plots were done using GraphPad Prism 8. […] In these cases the EC50 was noted as being higher than the maximum concentration used in the assay.

[3] = test system: cCaSR; assay: cCaSR transiently expressed in HEK293/natClytin, agonist luminescence assay; type: cell-based, Felis catus; conditions: transiently expressed cCaSR; > 3 mM = maximal response not reached
Description: (§1) The coding sequence of the Felis catus[52] and Homo sapiens[53] CaSR gene was synthesised by GeneArt (Thermo Fisher Scientific). The cat coding sequence was excised from the GeneArt construct and inserted in pcDNA3.1 for constitutive and transient expression or pcDNA5/ TO for inducible expression. For the human sequence the pcDNA6 vector as delivered by GeneArt was used without further sub-cloning.
(§2) All transient transfections were performed with Lipofectamine 2000 (Invitrogen) according to the manufacturer’s protocol.

[4] = biological target: T1, hCaSR (Homo sapiens, UniProt P41180); assay: hCaSR transiently expressed in HEK293/natClytin, agonist luminescence assay; type: cell-based
T1 construct: expressed in transfected cells; host or cells: HEK293/natClytin (transient, pcDNA6 as delivered by GeneArt)
T1 sequence (P41180 20-1078): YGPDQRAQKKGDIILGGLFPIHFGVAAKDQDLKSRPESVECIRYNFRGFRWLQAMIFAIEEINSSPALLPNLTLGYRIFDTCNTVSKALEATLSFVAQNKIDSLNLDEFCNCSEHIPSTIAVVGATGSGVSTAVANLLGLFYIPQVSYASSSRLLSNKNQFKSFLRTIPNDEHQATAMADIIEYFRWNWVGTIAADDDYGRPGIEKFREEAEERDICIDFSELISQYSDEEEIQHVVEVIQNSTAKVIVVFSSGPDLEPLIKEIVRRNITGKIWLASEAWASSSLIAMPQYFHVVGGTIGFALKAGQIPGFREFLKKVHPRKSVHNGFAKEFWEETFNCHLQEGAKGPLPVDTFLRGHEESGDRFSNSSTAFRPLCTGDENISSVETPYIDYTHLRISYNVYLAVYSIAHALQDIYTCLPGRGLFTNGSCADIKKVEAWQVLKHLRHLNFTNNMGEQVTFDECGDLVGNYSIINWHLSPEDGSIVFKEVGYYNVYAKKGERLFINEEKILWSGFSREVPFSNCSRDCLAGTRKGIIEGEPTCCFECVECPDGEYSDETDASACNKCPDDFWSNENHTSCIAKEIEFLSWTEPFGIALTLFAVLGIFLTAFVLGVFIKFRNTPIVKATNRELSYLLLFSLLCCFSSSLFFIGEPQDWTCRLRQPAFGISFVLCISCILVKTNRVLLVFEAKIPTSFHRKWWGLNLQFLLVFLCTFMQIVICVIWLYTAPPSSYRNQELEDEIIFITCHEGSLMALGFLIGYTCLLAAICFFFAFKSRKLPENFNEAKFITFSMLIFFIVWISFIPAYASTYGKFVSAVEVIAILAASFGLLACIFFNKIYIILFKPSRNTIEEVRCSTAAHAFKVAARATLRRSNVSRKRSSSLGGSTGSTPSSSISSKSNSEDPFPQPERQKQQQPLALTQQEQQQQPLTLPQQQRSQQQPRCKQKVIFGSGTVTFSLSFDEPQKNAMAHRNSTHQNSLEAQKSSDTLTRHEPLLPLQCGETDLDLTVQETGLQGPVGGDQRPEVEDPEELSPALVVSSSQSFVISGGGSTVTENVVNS
Description: as §1, §2

[5] = biological target: T2, cCaSR (Felis catus, UniProt C7FF08); assay: cCaSR transiently expressed in HEK293/natClytin, agonist luminescence assay; type: cell-based
T2 sequence (C7FF08 1-1081): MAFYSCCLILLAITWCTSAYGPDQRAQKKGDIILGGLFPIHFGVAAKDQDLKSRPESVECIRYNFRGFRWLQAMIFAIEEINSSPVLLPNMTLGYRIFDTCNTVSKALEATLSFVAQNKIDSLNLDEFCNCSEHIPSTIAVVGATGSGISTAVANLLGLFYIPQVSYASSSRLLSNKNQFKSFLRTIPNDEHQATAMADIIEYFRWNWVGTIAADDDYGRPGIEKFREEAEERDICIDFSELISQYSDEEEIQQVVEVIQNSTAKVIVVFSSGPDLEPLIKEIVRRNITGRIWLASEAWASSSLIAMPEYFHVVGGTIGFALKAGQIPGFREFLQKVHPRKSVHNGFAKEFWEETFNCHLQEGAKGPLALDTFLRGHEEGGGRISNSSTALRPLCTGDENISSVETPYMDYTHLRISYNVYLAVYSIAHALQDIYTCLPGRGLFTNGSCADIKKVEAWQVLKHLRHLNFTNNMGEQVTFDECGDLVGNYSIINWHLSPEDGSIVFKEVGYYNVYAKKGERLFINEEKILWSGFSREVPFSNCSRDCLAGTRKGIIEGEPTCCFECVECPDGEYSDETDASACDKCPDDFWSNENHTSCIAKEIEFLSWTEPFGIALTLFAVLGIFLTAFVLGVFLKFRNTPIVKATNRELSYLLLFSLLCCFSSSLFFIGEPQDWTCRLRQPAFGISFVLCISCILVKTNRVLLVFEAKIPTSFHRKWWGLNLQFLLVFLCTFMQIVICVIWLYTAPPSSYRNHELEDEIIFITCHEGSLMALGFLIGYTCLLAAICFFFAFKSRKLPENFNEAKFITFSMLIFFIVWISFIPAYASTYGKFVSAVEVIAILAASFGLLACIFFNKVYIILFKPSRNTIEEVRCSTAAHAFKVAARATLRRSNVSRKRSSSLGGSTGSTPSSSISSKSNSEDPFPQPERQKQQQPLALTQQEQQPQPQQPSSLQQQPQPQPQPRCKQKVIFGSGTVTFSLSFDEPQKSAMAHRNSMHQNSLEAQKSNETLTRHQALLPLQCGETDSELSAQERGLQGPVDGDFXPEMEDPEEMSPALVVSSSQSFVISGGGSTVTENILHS
Description: as §1, §2

[6] = biological target: T2, cCaSR
Description: as §3, §4, §5, §6

[7] = biological target: T2, cCaSR; assay: cCaSR PAM luminescence assay, double injection with 0.5 mM CaCl2, HEK293/T-REx/natClytin-cCaSR; conditions: Supplementary Table I, PAM assay, dash = no activity
Description: as §3, §4, §7

[8] = biological target: T2, cCaSR; assay: cell-based
Description: as §3, §4, §5, §6

[9] = biological target: domestic cat Calcium Sensing Receptor (cCaSR) (Felis catus)
[10] = biological target: domestic cat Calcium Sensing Receptor (cCaSR) (Felis catus); remark: listed apart in the source
[11] = read-out: cCaSR activity, agonist assay, stable inducible cCaSR line, at least three wells
[12] = transiently expressed hCaSR, > 3 mM = maximal response not reached, read-out: hCaSR EC50
[13] = transiently expressed cCaSR, > 3 mM = maximal response not reached, read-out: cCaSR EC50
[14] = EC50 (M), agonist assay, stable inducible cCaSR line, > 0.01 M = maximal response not reached
[15] = EC50 Ago (M), Supplementary Table I, agonist assay, > 0.01 M = maximal response not reached
[16] = cCaSR activity, agonist assay, stable inducible cCaSR line, at least three wells
[17] = EC50 Value (heat map Fig. 5), cCaSR agonists, heat map
[18] = cCaSR stable EC50(mM), stably expressed cCaSR, Fig. 6b, > 3 mM = maximal response not reached

Compound	EC50 [4, 12]	EC50 [5, 13]	EC50 PAM (M) [7]	EC50 [8, 14]	EC50 [8, 15]	EC50 [8, 16]	EC50 [8, 18]	other results
CNc1ccc2oc(C[C@@H]3OC4(CC[C@@H]3C)O[C@H](C(C)C(=O)c3ccc[nH]3)[C@H](C)C[C@H]4C)nc2c1C(=O)O (some centres unmarked) [Calcium Ionophore, reference compound]								EC50 Ago (M) ([1]; agonist assay): -; EC50 PAM (M) [2]: -
CN[C@@H]1[C@@H](O)[C@@H](O[C@@H]2[C@@H](O)[C@H](O[C@H]3O[C@H]([C@@H](C)O)[C@@H](O)[C@H](O)[C@H]3N)[C@@H](N)C[C@H]2N)OC[C@]1(C)O [Geneticin, reference compound]	3.6 mM							EC50 [3]: 3 mM; EC50 Ago (M) ([1]; agonist assay): -; EC50 [1, 11]: > 10 mM; EC50 ([1]; read-out: cCaSR stable EC50, […], > 3 mM = maximal response not reached): 1.1 mM; EC50 PAM (M) [2]: -
N[C@@H](CC(=O)O)C(=O)O [L-Aspartic acid]	11.9 mM	11.8 mM	-	0.00411 M	0.00411 M	0.001 to 0.01 M		agonist activity on cCaSR (in words) [6]: strong agonist activity
N[C@@H](CCC(=O)O)C(=O)O [L-Glutamic acid]	> 3 mM	> 3 mM	-		0.00916 M	> 0.01 M		agonist activity on cCaSR (in words) [6]: strong agonist activity; EC50 [8, 17]: 0.00903 M; EC50 ([8]; cCaSR stable EC50(mM), […], > 3 mM = maximal response not reached): > 0.003 M
NCCCCN [Putrescine]	> 3 mM	> 3 mM					> 0.003 M	
NCCCCNCCCN [Spermidine]			-	0.00249 M	0.0025 M	0.001 to 0.01 M	0.0023 M	EC50 [5]: 1.1 mM; agonist activity on cCaSR (in words) [6]: agonists; EC50 [4]: 1.3 mM
NC[C@H]1O[C@H](O[C@H]2[C@H](O)[C@@H](O[C@H]3O[C@H](CO)[C@@H](O)[C@H](N)[C@H]3O)[C@H](N)C[C@@H]2N)[C@H](N)C[C@@H]1O [Tobramycin, reference compound]	0.16 mM	0.28 mM					4e-05 M	EC50 Ago (M) ([6]; Supplementary Table I, agonist assay, dash = no activity): -
CC[C@H](NC(=O)CC[C@H](N)C(=O)O)C(=O)NCC(=O)O [γ-Glu-Abu-Gly]	> 3 mM	> 3 mM	-	0.00265 M		0.001 to 0.01 M	> 0.003 M	
C[C@H](NC(=O)CC[C@H](N)C(=O)O)C(=O)O [γ-Glu-Ala]	> 3 mM	> 3 mM	-			> 0.01 M	> 0.003 M	EC50 [8, 17]: 0.00295 M
CC(C)[C@H](NC(=O)CC[C@H](N)C(=O)O)C(=O)NCC(=O)O [γ-Glu-Val-Gly]	4.1 mM	3.6 mM	-	0.00422 M			0.0069 M	
CC(C)[C@H](NC(=O)CC[C@H](N)C(=O)O)C(=O)O [γ-Glu-Val]	> 3 mM	> 3 mM	-	0.00452 M	0.00452 M	0.001 to 0.01 M	> 0.003 M	
Poly-L-arginine			-					cCaSR EC50 ([5]; transiently expressed cCaSR): 2.9 µg/mL; cCaSR stable EC50 [6]: 8.0 µg/mL; EC50 ([6]; agonist assay, stable inducible cCaSR line, > 0.01 M = maximal response not reached): 0.00101 mM; EC50 ([6]; read-out: EC50 Ago, Supplementary Table I, agonist assay, > 0.01 M = maximal response not reached): 0.00101 mM; EC50 [6, 11]: < 1 mM; hCaSR EC50 ([4]; transiently expressed hCaSR): 2.5 µg/mL
Poly-L-arginine (peptide)								EC50 for cCaSR (stably and transiently expressed) against the EC50 for hCaSR, luminescence dose response in HEK293/natClytin cells [9]: 2.5 fold; EC50 of agonist activity, luminescence (natClytin) in HEK T-Rex/natClytin cells inducibly expressing cCaSR, calcium-free buffer; activity grade +++ [10]: 0.00101 mM

Source: PMC8131363 (Scientific Reports, 2021)
